Structures can show the parent of a compound that is named as a salt.
Experiments:
isolated coronary artery = assay: Relaxation of isolated coronary artery; type: cell-based, Mongrel dogs; conditions: Canis lupus familiaris, read-out: ED50 (the source's name)
Description: Mongrel dogs of either sex (body weight 10-17 kg) were killed by bleeding under anesthetization with pentobarbital sodium (tradename: Nembutai ® Abbott Co., USA). Thereafter, the basilar and femoral arteries were extracted and attached blood and connective tissues were carefully removed in a dish filled with Krebs bicarbonate solution (composition: NaCl 117.7 mM, KC1 4.7 mM, CaCl2 2.5 mM, MgSo4 1.2 mM, glucose 10 mM, NaHCO3 24.4 mM). Thereafter, ring preparations were made therefrom. This preparation was suspended in a bathing tube of 10 ml filled with Krebs bicarbonate solution aerated with 95 % 02 and 5 % C02.
Then, samples of basilar and femoral arteries were contracted by application of 50 mM KC1. After confirming that the contraction was sustained, (a) compound (I) (erythro form) lactate, (b) compound (I) (threo form) lactate and (c) ifenprodil; [2-(4-benzyl- piperidino-l-(4-hydroxyphenyl)propane-l-ol] tartrate were, respectively, administered as test compounds and the dose-relaxation response was examined.
A strain gauge transducer (model SB-lT manufactured by Nihon Koden Co.) was employed for recording of change of tension and isometric contraction was recorded on a recorder (model QPD 53 made by Hitachi Ltd . ) .
Experiments were conducted in accordance with the method of Test Example 2 with use of the coronary artery in place of the basilar and femoral arteries. […]

isolated basilar artery [1] = assay: Ca antagonistic action: Ca-induced contraction in K-depolarized basilar artery; type: cell-based, Mongrel dogs; conditions: Canis lupus familiaris, 0.25 h, 50 mM KCl, Ca-free bath, cumulative CaCl2, compound applied 15 minutes before, read-out: pA2 values on Ca-induced contraction in depolarized muscle by K (converted)
Description: (§1) The same measurements as in Test Example 2 were carried out using the isolated basilar artery and isolated femoral artery treated in accordance with the method of Test Example 2.
(§2) For examination of the Ca antagonistic action, the depolarization of both isolated arteries was induced with 50 mM KC1 in a bathing solution from which Ca had been removed and then CaCl2 was cumulatively applied thereto. As test compounds, (a) compound (I) (erythro form) lactate and (b) ifenprodil tartrate were applied at 15 minutes before addition of CaCl2.

isolated femoral artery [2] = assay: Ca antagonistic action: Ca-induced contraction in K-depolarized femoral artery; type: cell-based, Mongrel dogs; conditions: Canis lupus familiaris, 0.25 h, 50 mM KCl, Ca-free bath, cumulative CaCl2, compound applied 15 minutes before, read-out: pA2 values on Ca-induced contraction in depolarized muscle by K (converted)
Description: as §1, §2

ddY male mice [3] = assay: Thromboembolic respiratory depression induced by ADP; type: in vivo; conditions: 30 mg/kg oral, ADP 40 mg/kg i.v., Compound (I) = erythro form
Description: The degree of formation of platelet thrombi in the pulmonary vessels of mice induced by intravenous administration of ADP can be measured based on the decrease in the respiratory rate. The anti-platelet thrombotic action of test drugs can be evaluated by using this decrease in the respiratory rate as a standard. […] Relative respiratory rate (%) was calculated according to the following formula. [formula] (cf. "Thrombosis Research", Vol. 35, Page 311, 1984)

mice = assay: Protective action on death caused by endotoxin shock; type: in vivo; conditions: for Number of survival after administration of endotoxin: of 15 (Compound (I)) or 14 (ifenprodil) animals
Source text: Compound (I) and ifenprodil tartrate were orally administered to mice and the protective action on death due to endotoxin shock was examined in accordance with a known method (Folia pharmacol. japon, vol. 86, page 17, 1985). The control group was drug-untreated.

platelets of rabbit = assay: Fluidity of platelet membrane (fluorescence polarization); type: cell-based; parameters: Fluorescence polarization: unit not given here; conditions: for Fluorescence polarization: fluidity increases as value decreases
Source text: The activity of compound (I) (lactate) and ifenprodil tartrate against the fluidity of platelet membrane was examined according to a known method (Biochimica et Biophysica Acta, vol. 798, page 210, 1984) using platelets of rabbit and using n-butyl alcohol as a positive control.

α1-adrenoceptor = assay: Antagonism of phenylephrine (α1-agonist) contraction in saphenous vein; type: cell-based, Mongrel dogs; conditions: α1 - agonist: phenylephrine; saphenous vein; 15 minutes treatment
Source text: (§3) In this experiment, phenylephrine and clonidine were used as al-agonist and a2-agonist, respectively, and these agonists were cumulatively applied to obtain a dose-response curve.

α2-adrenoceptor = assay: Antagonism of clonidine (α2-agonist) contraction in saphenous vein; type: cell-based, Mongrel dogs; conditions: α2 - agonist: clonidine, competitive antagonism, 15 min
Source text: as §3

ddY male mice [4] = assay: Ameliorative activity against damage of cerebral hypoxia (reduced pressure); type: in vivo
Description: Thirty mg/kg each of compound (I) (lactate) and ifenprodil tartrate and 16 mg/kg of phentolamine, which is an a-adrenoceptor blocker, were intraperitoneally administered to ddY male mice, respectively. […] Time from start of reduction of pressure until stop of respiration in the mice was measured. The control group was drug-untreated.

ddY male mice [5] = assay: Prolongation of gasping time in complete cerebral ischemic (decapitated) animals; type: in vivo; conditions: for Ratio of time (%): prolongation as compared with the control group; for Duration time of gasping: decapitated after 30 minutes
Description: After 30 minutes from administration, the.mice were decapitated and the duration time of gasping was measured. The control group was drug-untreated.

isolated femoral artery [6] = assay: K-induced 45Ca influx in isolated femoral artery; type: cell-based, Mongrel dogs; conditions: 10^-5 M + 50 mM KCl
Source text: (§4) Using the isolated basilar artery and femoral artery treated in accordance with Test Example 2, the activity of (a) compound (I) (lactate), (b) ifenprodil tartrate and (c) verapamil hydrochloride against ^45Ca influx and ^45Ca uptake were examined by the conventional method (J. Membran. Biol., vol. 59, page 19, 1981).

isolated femoral artery [7] = assay: K-induced 45Ca uptake in isolated femoral artery; type: cell-based, Mongrel dogs; conditions: 50 mM KCl alone 586.0 ± 17.9
Source text: as §4

isolated basilar artery [8] = assay: PGF2α-induced 45Ca uptake in isolated basilar artery; type: cell-based, Mongrel dogs; conditions: 10^-5 M + 10^-5 M PGF2α; PGF2α alone 166.2 ± 6.0
Source text: as §4

## CC(C(O)c1ccc(O)cc1)N1CCC(Cc2ccccc2)CC1 (centres unmarked) [Ifenprodil tartrate]
Isolated coronary artery
  EC50: 26 µM
Isolated basilar artery [1]
  Kb: 5.37 µM
Isolated femoral artery [2]
  Kb: 29.5 µM
ddY male mice [3]; 1/3 hr after administration
  Relative respiratory rate (%): 34.6 ±10.2 (n=8) %
ddY male mice [3]; 1 hr after administration
  Relative respiratory rate (%): 61.3 ±9.3 (n=6) %
ddY male mice [3]; 2 hr after administration
  Relative respiratory rate (%): 52.7 ±6.1 (n=10) %
ddY male mice [3]; 3 hr after administration
  Relative respiratory rate (%): 41.0 ±4.4 (n=8) %
ddY male mice [3]; 5 hr after administration
  Relative respiratory rate (%): 23.0 ±9.9 (n=7) %
mice; 70 mg/kg oral, 18 hr
  Number of survival after administration of endotoxin: 11
mice; 70 mg/kg oral, 20 hr
  Number of survival after administration of endotoxin: 9
mice; 70 mg/kg oral, 22 hr
  Number of survival after administration of endotoxin: 6
mice; 70 mg/kg oral, 24 hr
  Number of survival after administration of endotoxin: 2
mice; 70 mg/kg oral, 48 hr
  Number of survival after administration of endotoxin: 0
mice; 200 mg/kg oral, 18 hr
  Number of survival after administration of endotoxin: 11
mice; 200 mg/kg oral, 20 hr
  Number of survival after administration of endotoxin: 9
mice; 200 mg/kg oral, 22 hr
  Number of survival after administration of endotoxin: 7
mice; 200 mg/kg oral, 24 hr
  Number of survival after administration of endotoxin: 7
mice; 200 mg/kg oral, 48 hr
  Number of survival after administration of endotoxin: 5
mice; oral, mice, compound (I) at 200 mg/kg
  protective action on the death (endotoxin shock): no such effect
Platelets of rabbit
  effect on fluidity of platelet membrane: no such activity
Platelets of rabbit; 1 µM
  Fluorescence polarization: 7
Platelets of rabbit; 10 µM
  Fluorescence polarization: 13±7
Platelets of rabbit; 100 µM
  Fluorescence polarization: 3±3
α1-adrenoceptor
  pA2 value: 8.22 ± 0.29
α2-adrenoceptor
  pA2 value: 8.31
ddY male mice [4]; 30 mg/kg intraperitoneally, 30 minutes before, pressure reduced to 160 mmHg
  Time required for stoppage of respiration: 85.2 ± 4.1 s
ddY male mice [4]; i.p., 30 mg/kg compound (I) and ifenprodil tartrate, 16 mg/kg phentolamine
  effect on survival time (cerebral hypoxia): substantially no effect
ddY male mice [5]; 10 mg/kg i.p.
  Ratio of time (%): 10.0%
ddY male mice [5]; 10 mg/kg intraperitoneally
  Duration time of gasping: 23.0 ± 0.5 s
ddY male mice [5]; 30 mg/kg i.p.
  Ratio of time (%): 28.7%
ddY male mice [5]; 30 mg/kg intraperitoneally
  Duration time of gasping: 26.9 ± 1.2 s
Isolated femoral artery [6]; pre-incubation 15 min, 50 mM KCl alone 94.6 ± 5.2
  K-induced ^45Ca influx in isolated femoral artery: 99.8 ± 6.4 n mol/g wt. tissue
Isolated femoral artery [6]; pre-incubation 45 min, 50 mM KCl alone 98.4 ± 6.8
  K-induced ^45Ca influx in isolated femoral artery: 59.0 ± 9.8 n mol/g wt. tissue
Isolated femoral artery [6]; pre-incubation 135 min
  K-induced ^45Ca influx in isolated femoral artery: 64.8 ± 7.5 n mol/g wt. tissue
Isolated femoral artery [7]; 5 x 10^-5 M + 50 mM KCl
  K-induced ^45Ca uptake in isolated femoral artery: 471.2 ± 40.0 n mol/g wt. tissue
Isolated femoral artery [7]; 10^-4 M + 50 mM KCl
  K-induced ^45Ca uptake in isolated femoral artery: 486.5 ± 20.9 n mol/g wt. tissue
Isolated femoral artery [7]; 10^-5 M + 50 mM KCl
  K-induced ^45Ca uptake in isolated femoral artery: 635.2 ± 41.4 n mol/g wt. tissue
Isolated basilar artery [8]
  PGF2α-induced ^45Ca uptake in isolated basilar artery: 125.7 ± 5.6 n mol/g wt. tissue
